# Source: patent US11208559B2, “Modified indigo compounds and methods of dyeing a substrate using a modified indigo compound” (VF Jeanswear LP, priority 2016, dated 2021)
# Key:
# Assay type in all cases: physicochemical
# [1] = Stability of Compound 4 in water, UV-Vis spectra; settings: 3 wt. % aqueous solution, room temperature, up to 2 days
# Protocol: The stability of compound 4 was determined. An aqueous solution of 3 wt. % of Compound 4 was prepared at stored at room temperature for 2 days. The UV-Vis spectra for each solution were obtained prior to storage, 3 hours, 1 day, and 2 days. The solution was then diluted by a factor of 300 and the UV-Vis spectrum of FIG. 15 obtained.
# [2] = Heat treatment of dyed cotton fabric, conversion to indigo; settings: 4 minutes
# Protocol: Prepared for dye (PFD) 3×1 twill cotton fabric dyed with Compound 8 prepared by dipping in an aqueous solution containing 3 wt. % of Compound 8, padding, and drying at 50° C. The samples were then placed separately into a lab-scale tenter frame for heat treatment. See, FIG. 20 showing the dyed fabric exposed to 100° C. (left), 150° C. (middle), and 180° C. (right).
# [3] = Insoluble solids filtered from stored dye solution with sodium sulfate (Test 4); settings: 2 wt. % aqueous solution, 0.45 micron filter
# Protocol: Aqueous solutions of 2 wt. % of Compound 8 were prepared with varying concentrations of sodium sulfate and then filtered through a 0.45 micron PVDF syringe filter after one day of room temperature storage. The filters were then dried at 120° C., cooled to room temperature, and weighed to quantify the amount of insoluble solids that had precipitated out of solution during storage.
# In a control experiment, the weight change (−0.35%) was determined for a syringe filter that was flushed with 10 mL distilled water and then dried at 120° C.
# [4] = Air stability of aqueous solution, UV-Vis spectra
# Protocol: The air stability of Compound 8 was measured by diluting of the compound in water to provide a 0.01 wt. % solution. […] The solid line represents the stability of the Compound 8 aqueous solution under atmospheric conditions. The dashed line represents the stability of the Compound 8 aqueous solution after treatment with 15 minutes of nitrogen purging of the solution, followed by storage for 1 day in a vial equipped with a rubber septum. See, FIG. 10. The UV-Vis spectra of the solutions were obtained.
# [5] = Relative kinetics of degradation (hydrolysis) monitored by UV-Vis spectrophotometry; settings: 0.01 wt. % with 0.1M NaCl aqueous versus 0.01 wt. % without salt, room temperature
# Protocol: In this example, the relative kinetics of degradation for two conditions for Compound 8 were measured. One solution contained 0.01 wt. % of Compound 8 and 0.1M NaCl aqueous and the other solution contained 0.01 wt. % of Compound 8. Both solutions were stored at room temperature and the hydrolysis monitored using UV-Vis spectrophotometry. See, FIG. 13.
# [6] = Dilution of stock solution into distilled water, comparison with leuco-indigo; settings: for time to turn blue / convert back to indigo after dilution: 1 mL stock solution in 20 mL distilled water, no excess reducing agent
# Protocol: The stability and visual observations comparing what occurs when an aqueous stock solution of leuco-indigo and an aqueous solution Compound 8 were obtained. The leuco-indigo stock solution was prepared using 0.2 wt. % indigo powder, 0.5 wt. % NaOH, and 0.5 wt. % sodium hydrosulfite, the solution was heated to 50-60° C. for 30 minutes, and the solution was then allowed to cool to room temperature. An aqueous solution containing 3 wt. % of Compound 8 was prepared. 1 mL of each solution was then added to 20 mL of distilled water and physical observations were made. See, Table 3.
# [7] = Atmospheric steam treatment of dyed cotton skein, conversion to indigo; settings: steam under atmospheric conditions for 30 minutes
# Protocol: Cotton skeins were pretreated with 1 M NaOH (aq), dyed with a 3 wt. % aqueous solution of Compound 8, hydrolyzed using 1 M NaOH (aq), and then rinsed with water. One skein was dried at 50° C. and remains purple in color. See, the top skein in FIG. 21. The other skein was dried at 50° C. and then exposed to steam under atmospheric conditions for 30 minutes, resulting in the attainment of a blue hue. See, the botton skein in FIG. 21.
# [8] = Storage stability of aqueous dye solution at room temperature, UV-Vis spectra; settings: for compound converted to indigo: room temperature, 5 day period
# Protocol: All UV-Vis spectra were obtained using a Varian Cary 6000i UV-Vis spectrophotometer.
# The stability of Compound 8 was measured by diluting samples of the compound in water to provide 0.01 and 3% wt. % solutions. The solutions were then stored at room temperature for 5 days. The UV-Vis spectra of the solution after 1, 2, and 5 days were obtained. FIGS. 3 and 11A are the UV-Vis spectra which show the robustness of the dye compound after at least 2 days of storage at room temperature at both concentrations.
# The longer term stability of Compound 8 was measured by diluting a sample of the compound in water to provide a 0.01 wt. % solution containing 0.1M NaCl (aq). The solution was then stored at room temperature for 5 days. The UV-Vis spectra of the solution were obtained daily over the 5 days.
# The stability of Compound 8 was measured by preparing a 0.01 wt. % aqueous solution of compound 8 in water. The solution was then stored at room temperature for 2 days. The UV-Vis spectra of the solution after 1 and 2 days were obtained. FIG. 11B are the UV-Vis spectra which show the robustness of the dye compound after at least 2 days of storage at room temperature at both concentrations.
# [9] = Solubility studies in water (centrifugation, weighing of undissolved solids); settings: for Highest Solubility Measured (wt. %): in water, corrected for insoluble solids, true maximum solubility not determined; for average percent solids removed: undissolved solids removed during centrifugation of aqueous solutions
# Protocol: The solutions were prepared by adding a known amount of dye to a known amount of water and agitating the solution. Separately, each solution of known concentration was centrifuged for 30 minutes to separate out any undissolved solids. The supernatant was decanted and the remaining undissolved solids were dried at 50° C. and later weighed to determine wt. % of soluble portion.
# The actual concentration was determined by centrifuging the dye solutions extensively to remove any undissolved solids. The undissolved solids were then isolated, dried, and weighed.
# Note that in all instances, a true maximum solubility in water has not been determined due to the very high solubility of the compounds in water. For all compounds, the maximum solubility was corrected for the amount of insoluble solids that were isolated during centrifugation.
# [10] = Hydrolysis to indigo under hydrolyzing conditions
# [11] = 1 mL stock solution added to 20 mL distilled water
smiles,measurement,setting,value
C[n+]1cccc(C(=O)N2/C(=C3\C(=O)c4ccccc4N3C(=O)c3ccc[n+](C)c3)C(=O)c3ccccc32)c1 [Compound 4],stability in water compared to Compound 8,[1],relative instability
C[n+]1ccc(C(=O)N2/C(=C3\C(=O)c4ccccc4N3C(=O)c3cc[n+](C)cc3)C(=O)c3ccccc32)cc1 [Compound 8],conversion to indigo by heat,[2]; 100° C.,no conversion
same,conversion to indigo by heat,[2]; 150° C.,slower conversion
same,conversion to indigo by heat,[2]; 180° C.,relatively rapid conversion
same,Fraction of dye compound removed during filtration (%),"[3]; 0.1M Na2SO4, one day at room temperature",2.85%
same,Fraction of dye compound removed during filtration (%),"[3]; 0.5M Na2SO4, one day at room temperature",−0.4%
same,Fraction of dye compound removed during filtration (%),"[3]; 1M Na2SO4, one day at room temperature",0.1%
same,"UV-Vis spectra after one day, stored under nitrogen versus atmospheric conditions","[4]; 0.01 wt. % solution in water, 1 day at 8° C.",identical
same,air stability in solution,"[4]; aqueous solution, storage at room temperature for 2 days",air stable
same,hydrolysis rate with salt relative to without salt (factor slower),[5],six
same,Observation on dilution (color),[6]; [11],Dark purple solutions became lighter
same,UV-Vis spectra of diluted solutions,[6]; [11],superimposable - consistent with no
same,conversion to indigo by steam,[7],conversion to indigo
same,robustness of the dye compound on storage at room temperature,"[8]; 0.01 and 3 wt. % solutions in water, FIGS. 3 and 11A",at least 2 days
same,compound converted to indigo,[8]; 0.01 wt. % solution containing 0.1M NaCl (aq),9%
same,compound converted to indigo,[8]; 0.01 wt. % solution in water,41%
same,robustness of the dye compound on storage at room temperature,"[8]; Example 27, 0.01 wt. % aqueous solution, FIG. 11B",at least 2 days
same,Highest Solubility Measured (wt. %),[9],40 wt. %
same,average percent solids removed,[9],about 2%
O=C1/C(=C2/C(=O)c3ccccc3N2C(=O)c2ccncc2)N(C(=O)c2ccncc2)c2ccccc21 [Compound 35],Highest Solubility Measured (wt. %),[9],1.7 wt. %
same,average percent solids removed,[9],about 26%
O=C1/C(=C2/C(=O)c3ccccc3N2C(=O)c2ccncc2)N(C(=O)c2ccncc2)c2ccccc21 [Compound 37],Highest Solubility Measured (wt. %),[9],1.6 wt. %
same,average percent solids removed,[9],about 26%
same,hydrolysis to indigo,[10],hydrolyzes to indigo
"Oc1c(-c2[nH]c3ccccc3c2O)[nH]c2ccccc12 [Leuco-indigo, leuco-indigo]",Observation on dilution (color),[6]; [11],blue-green solution immediately
same,time to turn blue / convert back to indigo after dilution,[6],solution turned blue under 10 seconds
same,time to turn blue / convert back to indigo after dilution,[6]; listed as leuco-indigo,less than 10 seconds
